# Reference: article PMC9779606, “Synthesis, Structural Characterization and Biological Activity Evaluation of Novel Cu(II) Complexes with 3-(trifluoromethyl)phenylthiourea Derivatives” (International Journal of Molecular Sciences, 2022)
# System: M. tuberculosis Spec. 210
# Experiment: Tuberculostatic activity, Microplate Alamar Blue Assay (MABA)
# Format: cell-based, Mycobacterium tuberculosis
# Details: M. tuberculosis Spec. 210, patient isolate resistant to PAS, INH, ETB, RMP
# Method: The synthesized compounds were examined in vitro for their tuberculostatic activity using MABA method (Microplate Alamar Blue Assay method). […] The inoculum was prepared from fresh LJ culture in Middlebrook 7H9 Broth medium with OADC, adjusted to a no. 1 McFarland tube, and diluted 1:20. […] Each test compound stock solution was diluted in Middlebrook 7H9 Broth medium with OADC by fourfold, the final highest concentration to be tested. Compounds were diluted serially in sterile 96-well microtiter plates using 100 μL Middlebrook 7H9 Broth medium with OADC. […] A growth control containing no antibiotic and a sterile control without inoculation were also prepared on each plate. The plates were incubated at 37 °C for a week. After the incubation period, 30 μL of Alamar blue solution was added to each well, and the plate was re-incubated for 24 h. Growth is indicated by a color change from blue to pink and the lowest concentration of compound that prevented the color change was noted as its MIC. Isoniazid (INH), Rifampicin (RMP), Streptomycin (SM), and Ethambutol (EMB) as reference drugs were used for comparison.
row,Compound,MIC
1,"CC(NC(=S)[N-]c1cccc(C(F)(F)F)c1)c1ccccc1.CC(NC(=S)[N-]c1cccc(C(F)(F)F)c1)c1ccccc1.[Cu+2] (racemic) [Cu2, Copper(II) Complex with 1-(1-phenylethyl)-3-[3-(trifluoromethyl)phenyl]thiourea]",8 µg/mL
2,"FC(F)(F)c1cccc([N-]C(=S)NCCc2ccccc2)c1.FC(F)(F)c1cccc([N-]C(=S)NCCc2ccccc2)c1.O.[Cu+2] [Cu1, Copper(II) Complex with 1-(2-phenylethyl)-3-[3-(trifluoromethyl)phenyl]thiourea]",16 µg/mL
3,"FC(F)(F)c1cccc([N-]C(=S)NCc2ccccc2)c1.FC(F)(F)c1cccc([N-]C(=S)NCc2ccccc2)c1.[Cu+2] [Cu3, Copper(II) Complex with 1-benzyl-3-[3-(trifluoromethyl)phenyl]thiourea]",16 µg/mL
4,"FC(F)(F)c1cccc([N-]C(=S)Nc2cccc(Br)c2)c1.FC(F)(F)c1cccc([N-]C(=S)Nc2cccc(Br)c2)c1.[Cu+2] [Cu4, Copper(II) Complex with 1-(3-bromophenyl)-3-[3-(trifluoromethyl)phenyl] thiourea]",4 µg/mL
5,"O.O=[N+]([O-])c1cc(NC(=S)[N-]c2cccc(C(F)(F)F)c2)ccc1Cl.O=[N+]([O-])c1cc(NC(=S)[N-]c2cccc(C(F)(F)F)c2)ccc1Cl.[Cu+2] [Cu5, Copper(II) Complex with 1-(4-chloro-3-nitrophenyl)-3-[3-(trifluoromethyl)phenyl]thiourea]",4 µg/mL

# Same assay, conditions: Mycobacterium tuberculosis, M. tuberculosis Spec. 210, patient isolate resistant to PAS, INH, ETB, RMP, read-out: MIC
row,Compound,MIC
1,"CC[C@@H](CO)NCCN[C@@H](CC)CO [Ethambutol (EMB), Ethambutol, reference compound]",32 µg/mL
2,"NNC(=O)c1ccncc1 [Isoniazid (INH), Isoniazid, reference compound]",16 µg/mL
3,"CO[C@H]1/C=C/O[C@@]2(C)Oc3c(C)c(O)c4c(O)c(c(/C=N/N5CCN(C)CC5)c(O)c4c3C2=O)NC(=O)/C(C)=C\C=C\[C@H](C)[C@H](O)[C@@H](C)[C@@H](O)[C@@H](C)[C@H](OC(C)=O)[C@@H]1C [Rifampicin (RMP), Rifampicin, reference compound]",32 µg/mL
4,"[H]/N=C(/N)N[C@H]1[C@H](O)[C@@H](O)[C@H](O[C@@H]2O[C@@H](C)[C@](O)(C=O)[C@H]2O[C@@H]2O[C@@H](CO)[C@H](O)[C@@H](O)[C@@H]2NC)[C@@H](N/C(N)=N\[H])[C@@H]1O [Streptomycin (SM), Streptomycin, reference compound]",16 µg/mL
